Reference: ChEMBL document CHEMBL4229447, “Synthesis and evaluation of thiomannosides, potent and orally active FimH inhibitors” (Bioorg Med Chem Lett, 2018)
Values after ≈ are worked out from the molar mass of the structure shown. Active and inactive are the calls of the source. No cut-off for these calls is given here.

Columns and labels:
[1] = Metabolic stability in mouse liver microsomes after 30 mins; format: ADME, microsome; settings: read-out: Stability
[2] = Oral bioavailability in mouse at 10 mg/kg; format: ADME, organism-based; settings: in vivo
[3] = Solubility of the compound in pH 6.8 JP2 buffer; format: physicochemical
[4] = Permeability of the compound by PAMPA; format: ADME; settings: read-out: permeability
[5] = target: Type 1 fimbrin D-mannose specific adhesin (Escherichia coli K-12) (UniProt P08191); assay: Inhibition of Escherichia coli UTI89 FimH assessed as reduction in […] guinea pig erythrocyte hemagglutination titer
Sequence of Type 1 fimbrin D-mannose specific adhesin (Escherichia coli K-12) (P08191 whole entry): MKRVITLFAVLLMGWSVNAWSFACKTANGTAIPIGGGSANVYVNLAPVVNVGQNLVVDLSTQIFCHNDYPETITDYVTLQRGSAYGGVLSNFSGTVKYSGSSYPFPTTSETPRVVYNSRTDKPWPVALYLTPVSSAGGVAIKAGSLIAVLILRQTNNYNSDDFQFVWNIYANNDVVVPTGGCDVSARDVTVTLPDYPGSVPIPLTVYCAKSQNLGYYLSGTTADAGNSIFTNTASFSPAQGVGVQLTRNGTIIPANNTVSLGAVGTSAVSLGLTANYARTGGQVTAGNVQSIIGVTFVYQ

[6] = Drug excretion in mouse urine at 10 mg/kg, po or 2 mg/kg, iv; format: ADME, organism-based; settings: read-out: Drug excretion
[7] = Lipophilicity, log D of the compound at pH 7.4; format: physicochemical; settings: buffer
Escherichia coli [8] = assay: Antibiofilm activity against Escherichia coli UTI89; format: functional, organism-based
Escherichia coli [9] = assay: Antibiofilm activity against Escherichia coli UTI89 preformed biofilms; format: functional, organism-based
[10] = Mechanism based inactivation of CYP450 (unknown origin); format: ADME; settings: human
Escherichia coli [11] = assay: Antibacterial activity against Escherichia coli UTI89 in mouse prophylactic UTI model assessed as reduction in bacterial count in urinary bladder at 1 to 100 mg/kg, po administered 30 mins prior to infection measured at 2 and 24 hrs post infection; format: functional, organism-based
hERG (KCNH2) = hERG (KCNH2) (Homo sapiens, UniProt Q12809); assay: Inhibition of human ERG at 100 uM relative to control
Sequence of hERG (KCNH2) (Q12809 whole entry): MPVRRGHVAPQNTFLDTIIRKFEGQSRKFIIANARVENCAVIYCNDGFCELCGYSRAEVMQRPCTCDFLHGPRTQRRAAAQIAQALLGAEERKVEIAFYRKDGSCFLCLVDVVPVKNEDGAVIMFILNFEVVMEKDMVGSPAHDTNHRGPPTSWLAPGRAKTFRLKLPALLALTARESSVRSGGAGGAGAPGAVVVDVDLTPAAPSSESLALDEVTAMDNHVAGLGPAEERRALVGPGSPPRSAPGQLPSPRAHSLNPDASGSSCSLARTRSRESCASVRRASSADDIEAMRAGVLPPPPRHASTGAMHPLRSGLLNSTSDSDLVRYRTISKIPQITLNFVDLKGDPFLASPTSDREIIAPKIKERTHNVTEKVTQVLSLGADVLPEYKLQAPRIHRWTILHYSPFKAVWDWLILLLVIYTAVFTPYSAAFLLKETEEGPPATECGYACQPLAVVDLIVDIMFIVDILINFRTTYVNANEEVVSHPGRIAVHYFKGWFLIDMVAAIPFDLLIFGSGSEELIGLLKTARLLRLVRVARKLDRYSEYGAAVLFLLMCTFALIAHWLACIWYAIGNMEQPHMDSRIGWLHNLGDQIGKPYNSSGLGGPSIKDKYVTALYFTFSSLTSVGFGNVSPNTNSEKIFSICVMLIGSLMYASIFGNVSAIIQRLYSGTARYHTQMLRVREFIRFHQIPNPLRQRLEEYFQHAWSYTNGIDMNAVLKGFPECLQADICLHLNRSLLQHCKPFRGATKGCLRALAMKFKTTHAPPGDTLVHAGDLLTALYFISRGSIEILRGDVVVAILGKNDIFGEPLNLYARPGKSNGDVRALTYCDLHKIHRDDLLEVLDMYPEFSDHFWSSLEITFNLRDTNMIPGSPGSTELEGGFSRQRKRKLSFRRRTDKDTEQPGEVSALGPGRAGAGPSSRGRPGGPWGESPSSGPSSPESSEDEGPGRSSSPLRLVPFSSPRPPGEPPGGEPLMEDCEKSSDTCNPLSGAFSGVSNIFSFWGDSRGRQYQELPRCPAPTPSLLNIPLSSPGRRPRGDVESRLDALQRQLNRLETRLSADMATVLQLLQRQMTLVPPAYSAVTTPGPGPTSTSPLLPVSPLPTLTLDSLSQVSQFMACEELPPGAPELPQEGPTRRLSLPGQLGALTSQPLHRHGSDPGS

Mus musculus = assay: Time at which simulated urine concentration stays above its HAI titer in mouse at 1 to 100 mg/kg, po; format: ADME, organism-based; settings: in vivo

| Compound | remaining at 0.5 h [1] | bioavailability [2] | solubility [3] | Papp [4] | EC90 [5] | dose excreted [6] | logD [7] | IC50 (Escherichia coli [8]) | IC50 (Escherichia coli [9]) | Activity [10] | Activity (Escherichia coli [11]) | inhibition at 100 µM (hERG (KCNH2)) | Time (Mus musculus) |
| --- | --- | --- | --- | --- | --- | --- | --- | --- | --- | --- | --- | --- | --- |
| Cc1cc(-c2ccc(=O)n(CC(C)C)c2)ccc1S[C@H]1O[C@H](CO)[C@@H](O)[C@H](O)[C@@H]1O | 95% | 1% | 863 µg/mL (≈ 1980 µM) | ≤ 12 ×10⁻⁶ cm/s | 2.5 µM | 8.1% | 1.5 |  |  |  |  |  |  |
| COc1ccc(-c2ccc(S[C@H]3O[C@H](CO)[C@@H](O)[C@H](O)[C@@H]3O)c(C)c2)cn1 | 100% | 86% | 663 µg/mL (≈ 1690 µM) | 12 to 30 ×10⁻⁶ cm/s | 0.31 µM | 2.8% | 2.1 | 0.3 µg/mL (≈ 0.762 µM) | 0.56 µg/mL (≈ 1.42 µM) | Not Active | Active | 10.8% | <= 24 hr |
| Cc1cc(-c2ccc(N3CCC3)nc2)ccc1S[C@H]1O[C@H](CO)[C@@H](O)[C@H](O)[C@@H]1O | 91% | 14% | 217 µg/mL (≈ 518 µM) |  | 1.25 µM | 7% | 2.1 |  |  |  |  |  |  |
| CCCCn1ccc(-c2ccc(S[C@H]3O[C@H](CO)[C@@H](O)[C@H](O)[C@@H]3O)c(C)c2)cc1=O | 60% | 1% | 582 µg/mL (≈ 1340 µM) | ≤ 12 ×10⁻⁶ cm/s | 0.6 µM |  | 1.8 |  |  |  |  |  |  |
| Cc1cc(-c2ccc(=O)n(CC(C)(C)O)c2)ccc1S[C@H]1O[C@H](CO)[C@@H](O)[C@H](O)[C@@H]1O | 97% | 0% | 729 µg/mL (≈ 1610 µM) | ≤ 12 ×10⁻⁶ cm/s | 1.25 µM | 5.3% | 0.5 |  |  |  |  |  |  |
| CSc1ccc(-c2ccc(S[C@H]3O[C@H](CO)[C@@H](O)[C@H](O)[C@@H]3O)c(C)c2)cn1 | 61% | 23% | 150 µg/mL (≈ 366 µM) | ≤ 12 ×10⁻⁶ cm/s | 0.6 µM | 11.7% | 2.3 |  |  |  |  |  |  |
| Cc1cc(-c2ccc(=O)n(-c3ccccc3)c2)ccc1S[C@H]1O[C@H](CO)[C@@H](O)[C@H](O)[C@@H]1O | 93% | 15% | 142 µg/mL (≈ 312 µM) | ≤ 12 ×10⁻⁶ cm/s | 1.25 µM | 24% | 1.2 |  |  |  |  |  |  |
| CCCCn1cc(-c2ccc(S[C@H]3O[C@H](CO)[C@@H](O)[C@H](O)[C@@H]3O)c(C)c2)ccc1=O | 95% | 3% | 740 µg/mL (≈ 1700 µM) | ≤ 12 ×10⁻⁶ cm/s | 0.6 µM | 7% | 1.7 |  |  |  |  |  |  |
| Cc1cc(-c2ccc(=O)n(C)c2)ccc1S[C@H]1O[C@H](CO)[C@@H](O)[C@H](O)[C@@H]1O | 72% |  | 719 µg/mL (≈ 1830 µM) | ≤ 12 ×10⁻⁶ cm/s | 1.25 µM |  | 0.3 |  |  |  |  |  |  |
| CCn1cc(-c2ccc(S[C@H]3O[C@H](CO)[C@@H](O)[C@H](O)[C@@H]3O)c(C)c2)ccc1=O | 100% |  | 668 µg/mL (≈ 1640 µM) | ≤ 12 ×10⁻⁶ cm/s | 2.5 µM |  | 0.7 |  |  |  |  |  |  |
